In patent publication US10500198B2, “Bis-benzylidine piperidone proteasome inhibitor with anticancer activity” (The Johns Hopkins University, priority 2013, dated 2019):

Assays:
[1] = test system: HCC 1806, HS578T, BT549 and MB-231 breast cancer cells; assay: Viability of triple negative breast cancer cell lines; type: cell-based; conditions: 48 hours
Protocol: To test the efficacy of various RA compound derivatives on the viability of breast cancer cells, breast cancer cell lines were treated in vitro with varying concentrations of selected compounds. […] FIGS. 16A-16E are a series of data graphs and a western blot showing the efficacy of select compounds against various breast cancer cell lines. […] Briefly HS578T cell lysate was incubated with corresponding compounds for the period of 1 hr at 4 C and subjected to Western blot analysis and probed for HRP-Streptavidin.

RPN13 = molecular target: T1, RPN13 (Homo sapiens, UniProt Q16186); assay: Biotin labeling assay; type: binding; conditions: cell lysate or purified RP, streptavidin-peroxidase blot
T1 construct: endogenous in cells; host or cells: HeLa, HS578T cell lysate
Protocol: FIGS. 10 A-10E show a series of graphs and immunoblots showing the effects of several compounds on cell viability and proteasome activity. […] 10B and 10C show immunoblots of the proteasome activity of cell lines treated with the indicated compounds. […] IC50 values were determined in triplicate. In FIG. 10B, HeLa cells were treated for 12 hr and the cell lysate was subjected to immunoblot analysis with anti-Ubiquitin antibody. In FIG. 10C, SiHa cells were treated with the indicated compounds for 12 hr and the lysate subjected to Western blot analysis with anti-Ubiquitin antibody. HeLa cell lysate was treated with RA190B, subjected to SDS-PAGE, and probed with streptavidin-peroxidase following protein transfer to a polyvinylidene difluoride (PVDF) membrane. The streptavidin-peroxidase bound to biotinylated cellular proteins, but a striking new band at 42 kDa appeared in RA190B-treated samples (FIG. 2A). […] IC50 values were determined in triplicate.
To eliminate the possibility that another RP component was required for RA190B interaction, RPN13 or an irrelevant protein (L2) was overexpressed in bacteria. Cell lysate harvested from bacteria either with or without […] induction of ectopic protein expression was labeled with RA190B and probed by blotting with streptavidin-peroxidase. RA190B reacted strongly with a 42 kDa protein only in lysates of bacteria expressing RPN13 (FIG. 2D). […] 800 μL fractions were collected and alternate fractions (1,3,5,7,9,11,13,15,17) were analyzed for the presence of proteasomal proteins (RPN13, RPN2, RPN1 and UCH37) by Western blot analysis.
Human cells (5×10^6 HeLa or 293TT cells) were lysed using MPER (Pierce) lysis buffer (500 μL). RPN13 or HPV L2 transformed bacterial cells (500 μL of culture) were centrifuged to harvest the cells which were re-suspended in 500 μL BPER (Pierce). Cell lysates were centrifuged at 10,000 rpm briefly (2 min) at 4° C. to remove cell debris. Lysate supernatant (200 μL) was pre cleared with streptavidin dyna beads (20 μL) for 1 h at 4° C. to remove non-specific biotin binding and incubated with compounds (indicated concentrations or 20 μM) at 4° C. for 1 hr. An equal amount of each sample (20 μL of lysate) was mixed with an equal volume of Laemmli sample buffer (20 μL) (BioRad) and was boiled for 5 min. […] (24 V). Membrane was blocked with 5% BSA in PBST for 1 hr at room temperature and washed for 20 min (3×PBST). Then the membrane was probed with HRP-streptavidin (1:10,000 in PBST) for 1 hr at room temperature and washed for 30 min (3×PBST) and developed using HyGLO chemiluminescent detection reagent (Denville) for biotin recognition. For the purified enzyme assay, 19S purified proteasome (R&D Systems, Cat. No. E-366) (500 ng) in 19S buffer (20 mM HEPES, 20 mM NaCl, 1 mM DTT, 15% Glycerol) was incubated with compounds (20 μM) for 1 hr at room temperature and mixed with an equal volume of Laemmli sample buffer (20 μL) (BioRad) and was boiled for 5 min. Each sample was loaded onto gel and followed the western blot protocol mentioned above.
Purified 19S proteasome (500 ng) was incubated with corresponding compounds for 30 min and subjected to immunoblot and probed with HRP-conjugated streptavidin. In FIG. 23, the single band at 42 KDa indicates Rpn13 binding to 195. RA183B (20 μM) is used as positive control for Rpn13 binding. Competition experiments were done with RA183 (100 μM) and RA195 (100 μM) along with RA195B (20 μM).

T1 sequence (Q16186 whole entry): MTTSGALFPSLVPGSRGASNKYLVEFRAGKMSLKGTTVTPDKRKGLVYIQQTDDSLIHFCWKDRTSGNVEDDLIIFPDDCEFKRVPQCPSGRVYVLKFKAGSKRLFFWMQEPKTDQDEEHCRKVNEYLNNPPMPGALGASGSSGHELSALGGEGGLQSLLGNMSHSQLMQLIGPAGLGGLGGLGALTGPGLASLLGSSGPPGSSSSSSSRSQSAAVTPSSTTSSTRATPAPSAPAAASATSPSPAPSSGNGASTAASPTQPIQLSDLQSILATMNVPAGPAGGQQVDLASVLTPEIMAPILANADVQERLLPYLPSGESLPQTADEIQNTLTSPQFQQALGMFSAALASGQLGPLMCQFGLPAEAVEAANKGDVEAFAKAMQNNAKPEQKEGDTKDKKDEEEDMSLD

Compound: C=CC(=O)N[C@@H](Cc1ccccc1)C(=O)N1C/C(=C\c2ccc(Cl)c(Cl)c2)C(=O)/C(=C/c2ccc(Cl)c(Cl)c2)C1 [RA190Acr]
- potency relative to RA190 [1]: potency similar to RA190
- labeling of / competition for RPN13 (42 kDa band) (RPN13): competes the binding of RA190B to RPN13
